US9643967B2, “Pyrrolo[3,2-c]pyridine derivatives as TLR inhibitors” (TAKEDA PHARMACEUTICAL COMPANY LIMITED, priority 2013, dated 2017)

Biological target: T1, hTLR9 (Homo sapiens, UniProt Q9NR96)
T1 construct: expressed in transfected cells; host or cells: HEK-Blue-hTLR9 cells (HEK293)
T1 sequence (Q9NR96 26-1032): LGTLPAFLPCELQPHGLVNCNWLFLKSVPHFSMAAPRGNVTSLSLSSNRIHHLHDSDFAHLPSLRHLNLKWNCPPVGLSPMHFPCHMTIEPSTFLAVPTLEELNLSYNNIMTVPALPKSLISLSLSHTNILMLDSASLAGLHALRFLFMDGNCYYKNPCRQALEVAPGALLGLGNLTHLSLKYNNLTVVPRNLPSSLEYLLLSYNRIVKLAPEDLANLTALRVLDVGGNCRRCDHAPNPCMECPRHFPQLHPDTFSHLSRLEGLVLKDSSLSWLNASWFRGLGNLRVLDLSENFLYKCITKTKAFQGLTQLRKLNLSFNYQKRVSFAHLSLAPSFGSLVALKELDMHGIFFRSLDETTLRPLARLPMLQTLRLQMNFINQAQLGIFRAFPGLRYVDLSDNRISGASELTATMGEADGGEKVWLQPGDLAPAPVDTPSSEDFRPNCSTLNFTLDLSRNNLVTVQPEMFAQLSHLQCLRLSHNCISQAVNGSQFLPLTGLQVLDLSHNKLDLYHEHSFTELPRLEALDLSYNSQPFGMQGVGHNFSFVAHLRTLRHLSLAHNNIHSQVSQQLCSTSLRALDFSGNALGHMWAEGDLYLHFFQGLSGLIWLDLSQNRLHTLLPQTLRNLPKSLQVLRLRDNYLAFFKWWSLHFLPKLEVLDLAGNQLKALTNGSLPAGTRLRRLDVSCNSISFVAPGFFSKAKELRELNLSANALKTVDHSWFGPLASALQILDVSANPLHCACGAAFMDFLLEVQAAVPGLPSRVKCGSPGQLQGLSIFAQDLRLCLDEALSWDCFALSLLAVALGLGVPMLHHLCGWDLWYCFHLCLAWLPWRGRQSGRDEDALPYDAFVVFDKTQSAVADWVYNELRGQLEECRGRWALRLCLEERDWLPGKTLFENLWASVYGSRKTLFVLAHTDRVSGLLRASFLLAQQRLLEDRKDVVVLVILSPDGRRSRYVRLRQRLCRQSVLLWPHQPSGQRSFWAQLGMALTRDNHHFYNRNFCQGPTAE
Assay: hTLR9 antagonism (SEAP inhibition assay) in HEK-Blue-hTLR9 (HEK293) cells, ODN-2006 stimulated
Format: cell-based
Details: HEK-Blue hTLR9, 1 μM; SEAP, HEK-Blue-hTLR9 cells; read-out: hTLR9 inhibitory activity (% at 1 μM)
Method: hTLR9 Antagonism (SEAP Inhibition Assay) in HEK293 Cell Lines
The SEAP reporter gene in HEK-Blue™-hTLR9 cells is placed under the control of the IFN-b minimal promoter fused to five NF-kB and AP-1 binding sites. The stimulation with a TLR9 ligand (ODN-2006) activates NF-kB and AP-1 which induces the production of SEAP. Levels of SEAP are determined with QUANTI-Blue™ detection medium that turns purple/blue in the presence of alkaline phosphatase. Decrease in the levels of SEAP production as indicated by reduction in absorbance at 650 nm is directly co-related with the TLR9 inhibitory activity of the antagonist (NCE).
HEK-Blue™-hTLR9 cells were maintained in DMEM with 10% FBS, 1% Penicillin/Streptomycin/Amphotericin (complete growth medium) and 0.2% Normocin. For the assay, cells were dissociated by washing in 1×PBS and re-suspended in complete DMEM. Cells were seeded at a density of 20000 cells per well; (40 μl per well) in a 384 well assay plate.
5 μl of 10× antagonist (NCE) was added to the cells in triplicates for each concentration. The plate was incubated for half an hour at 37° C. with 5% CO2. 5 μl of agonist (ODN-2006) was added and the plate was incubated overnight for 18 hours at 37° C. with 5% CO2. 5 μl of supernatant was transferred to a 384 well reading plate and to this 45 μl of Quanti-Blue™ detection reagent was added. The plate was then incubated for an hour at 37° C. SEAP activity in the supernatant was indicated by change in the pink color of Quanti-Blue™ detection reagent to purple/blue and the absorbance was read at 650 nm in the end point mode.

| SMILES | inhibition at 1 µM |
| --- | --- |
| CC(C)N1CCN(c2ccc(-c3nccc4[nH]c(CN5CCOCC5)cc34)cc2)CC1 [Example A1, 4-[[4-[4-(4-isopropylpiperazin-1-yl)phenyl]-1H-pyrrolo[3,2-c]pyridin-2-yl]methyl]morpholine] | 100% |
| CN1CCN(c2ccc(-c3nccc4[nH]c(CN5CCOCC5)cc34)cc2)CC1 [Example A2, 4-[[4-[4-(4-methylpiperazin-1-yl)phenyl]-1H-pyrrolo[3,2-c]pyridin-2-yl]methyl] morpholine] | 100% |
| CCN1CCN(c2ccc(-c3nccc4[nH]c(CN5CCOCC5)cc34)cc2)CC1 [Example A3, 4-[[4-[4-(4-ethylpiperazin-1-yl)phenyl]-1H-pyrrolo[3,2-c]pyridin-2-yl]methyl] morpholine] | 100% |
| Cc1cc2[nH]c(CN3CCOCC3)cc2c(-c2ccc(N3CCN(C(C)C)CC3)cc2)n1 [Example A4, 4-[[4-[4-[4-isopropylpiperazin-1-yl)phenyl]-6-methyl-1H-pyrrolo[3,2-c]pyridin-2-yl]methyl] morpholine] | 100% |
| CCN1CCN(c2ccc(-c3nc(C)cc4[nH]c(CN5CCOCC5)cc34)cc2)CC1 [Example A5, 4-[[4-[4-(4-ethylpiperazin-1-yl)phenyl]-6-methyl-1H-pyrrolo[3,2-c]pyridin-2-yl]methyl] morpholine] | 100% |
| CC(C)N1CCN(c2ccc(-c3nccc4c3cc(CN3CCOCC3)n4C)cc2)CC1 [Example A8, 4-[[4-[4-(4-isopropylpiperazin-1-yl)phenyl]-1-methyl-pyrrolo[3,2-c]pyridin-2-yl]methyl] morpholine] | 100% |
| CN1CCN(c2ccc(-c3nccc4c3cc(CN3CCOCC3)n4C)cc2)CC1 [Example A9, 4-[[1-methyl-4-[4-(4-methylpiperazin-1-yl)phenyl]pyrrolo[3,2-c]pyridin-2-yl]methyl] morpholine] | 100% |
| CC(C)N1CCN(c2ccc(-c3nccc4[nH]c(CN5CCC(O)CC5)cc34)cc2)CC1 [Example A12, 1-[[4-[4-(4-isopropylpiperazin-1-yl)phenyl]-1H-pyrrolo[3,2-c]pyridin-2-yl]methyl] piperidin-4-ol] | 100% |
| CC(C)N1CCN(c2ccc(-c3nccc4[nH]c(CN5CCC6(CC5)CC(O)C6)cc34)cc2)CC1 [Example A13, 7-[[4-[4-(4-isopropylpiperazin-1-yl)phenyl]-1H-pyrrolo[3,2-c]pyridin-2-yl]methyl]-7-azaspiro[3.5] nonan-2-ol] | 100% |
| CC(C)N1CCN(c2ccc(-c3nccc4[nH]c(CN5CC(F)C5)cc34)cc2)CC1 [Example A16, 2-[(3-fluoroazetidin-1-yl)methyl]-4-[4-(4-isopropylpiperazin-1-yl)phenyl]-1H-pyrrolo[3,2-c]pyridine] | 100% |
| CC(C)N1CCN(c2ccc(-c3nccc4[nH]c(CN5CCCCC5)cc34)cc2)CC1 [Example A17, 4-[4-(4-isopropylpiperazin-1-yl)phenyl]-2-(1-piperidylmethyl)-1H-pyrrolo[3,2-c]pyridine] | 100% |
| CC(C)N1CCN(c2ccc(-c3nccc4[nH]c(CN5CCC(F)CC5)cc34)cc2)CC1 [Example A24, 2-[(4-fluoro-1-piperidyl)methyl]-4-[4-(4-isopropylpiperazin-yl)phenyl]-1H-pyrrolo[3,2-c] pyridine] | 95.1% |
| CN1CCN(c2ccc(-c3nccc4[nH]c(CN5CCC(F)CC5)cc34)cc2)CC1 [Example A25, 2-[(4-fluoro-1-piperidyl)methyl]-4-[4-(4-methylpiperazin-1-yl)phenyl] - 1H-pyrrolo[3,2-c]pyridine] | 95.2% |
| Cc1cc2[nH]c(Cn3cccn3)cc2c(-c2ccc(N3CCN(C(C)C)CC3)cc2)n1 [Example A28, 4-[4-(4-isopropylpiperazin-1-yl)phenyl]-6-methyl-2-(pyrazol-1-ylmethyl)-1H-pyrrolo[3,2-c]pyridine] | 91% |
| Cc1cc2[nH]c(CN3CCC4(CC3)CC(O)C4)cc2c(-c2ccc(N3CCN(C(C)C)CC3)cc2)n1 [Example A29, 7-[[4-[4-(4-isopropylpiperazin-1-yl)phenyl]-6-methyl-1H-pyrrolo[3,2-c]pyridin-2-yl]methyl]-7-azaspiro[3.5] nonan-2-ol] | 100% |
| Cc1cc2[nH]c(CN3CCC4(CC3)CC(C)C4)cc2c(-c2ccc(N3CCN(C(C)C)CC3)cc2)n1 [Example A30, 4-[4-(4-isopropylpiperazin-1-yl)phenyl]-6-methyl-2-[(2-methyl-7-azaspiro[3.5]nonan-7-yl)methyl]-1H-pyrrolo[3,2-c]pyridine] | 96.7% |
| CC(C)N1CCN(c2ccc(-c3nc(C4CC4)cc4[nH]c(CN5CCOCC5)cc34)cc2)CC1 [Example A33, 4-[[6-cyclopropyl-4-[4-(4-isopropylpiperazin-1-yl)phenyl]-1H-pyrrolo[3,2-c]pyridin-2-yl]methyl] morpholine] | 90.4% |
| CN1CCN(c2ccc(-c3nc(C4CC4)cc4[nH]c(CN5CCOCC5)cc34)cc2)CC1 [Example A34, 4-[[6-cyclopropyl-4-[4-(4-methylpiperazin-1-yl)phenyl]-1H-pyrrolo[3,2-c]pyridin-2-yl]methyl] morpholine] | 82% |
| Cc1cc2c(cc(CN3CCOCC3)n2C)c(-c2ccc(N3CCN(C(C)C)CC3)cc2)n1 [Example A35, 4-[[4-[4-(4-isopropylpiperazin-1-yl]phenyl]-1,6-dimethyl-pyrrolo[3,2-c]pyridin-2-yl]methyl] morpholine] | 96.3% |
| Cc1nc(-c2ccc(N3CCN(C(C)C)CC3)cc2)c2cc(CN3CCOCC3)[nH]c2c1C [Example A36, 4-[[4-[4-(4-isopropylpiperazin-1-yl)phenyl]-6,7-dimethyl-1H-pyrrolo[3,2-c]pyridin-2-yl]methyl] morpholine] | 96.7% |
| Cc1nc(-c2ccc(N3CCN(C)CC3)cc2)c2cc(CN3CCOCC3)[nH]c2c1C [Example A37, 4-[[6,7-dimethyl-4-[4-(4-methylpiperazin-1-yl)phenyl]-1H-pyrrolo[3,2-c]pyridin-2-yl]methyl] morpholine] | 100% |
| CCN1CCN(c2ccc(-c3nc(C)c(C)c4[nH]c(CN5CCOCC5)cc34)cc2)CC1 [Example A38, 4-[[4-[4-(4-ethylpiperazin-1-yl)phenyl]-6,7-dimethyl-1H-pyrrolo[3,2-c]pyridin-2-yl]methyl] morpholine] | 98.5% |
| Cc1nc(-c2ccc(N3CCN(C(C)C)CC3)cc2)c2cc(CN3CCCCC3)[nH]c2c1C [Example A39, 4-[4-(4-isopropylpiperazin-1-yl)phenyl]-6,7-dimethyl-2-(1-piperidylmethyl)-1H-pyrrolo[3,2-c]pyridine] | 74.3% |
| Cc1nc(-c2ccc(N3CCN(C(C)C)CC3)cc2)c2cc(CN3CCCC3)[nH]c2c1C [Example A40, 4-[4-(4-isopropylpiperazin-1-yl)phenyl]-6,7-dimethyl 2-(pyrrolidin-1-ylmethyl)-1H-pyrrolo[3,2-c)pyridine] | 80% |
| c1cc2[nH]c(CN3CCOCC3)cc2c(-c2ccc(N3CCNCC3)cc2)n1 [Example A42, 4-[[4-(4-(piperazin-1-yl)phenyl)-1H-pyrrolo[3,2-c]pyridin-2-yl]methyl] morpholine] | 96% |
| c1cc2[nH]c(CN3CCOCC3)cc2c(-c2ccc(OC3CCNCC3)cc2)n1 [Example A49, 4-[[4-[4-(4-piperidyloxy)phenyl]-1H-pyrrolo[3,2-c]pyridin-2-yl]methyl]morpholine] | 91% |
